For the assay, the target named is human full-length BTK Kinase (Homo sapiens (Human), UniProt Q06187). As to the kind of experiment: Human BTK LanthaScreen Assay (TR-FRET). To be noted: 50 μM ATP, FAM-Srctide peptide substrate, read-out: BTK Inhibition IC50. It counts as biochemical. An excerpt: Human BTK LanthaScreen Assay
Sequence of human full-length BTK Kinase (Q06187 whole entry): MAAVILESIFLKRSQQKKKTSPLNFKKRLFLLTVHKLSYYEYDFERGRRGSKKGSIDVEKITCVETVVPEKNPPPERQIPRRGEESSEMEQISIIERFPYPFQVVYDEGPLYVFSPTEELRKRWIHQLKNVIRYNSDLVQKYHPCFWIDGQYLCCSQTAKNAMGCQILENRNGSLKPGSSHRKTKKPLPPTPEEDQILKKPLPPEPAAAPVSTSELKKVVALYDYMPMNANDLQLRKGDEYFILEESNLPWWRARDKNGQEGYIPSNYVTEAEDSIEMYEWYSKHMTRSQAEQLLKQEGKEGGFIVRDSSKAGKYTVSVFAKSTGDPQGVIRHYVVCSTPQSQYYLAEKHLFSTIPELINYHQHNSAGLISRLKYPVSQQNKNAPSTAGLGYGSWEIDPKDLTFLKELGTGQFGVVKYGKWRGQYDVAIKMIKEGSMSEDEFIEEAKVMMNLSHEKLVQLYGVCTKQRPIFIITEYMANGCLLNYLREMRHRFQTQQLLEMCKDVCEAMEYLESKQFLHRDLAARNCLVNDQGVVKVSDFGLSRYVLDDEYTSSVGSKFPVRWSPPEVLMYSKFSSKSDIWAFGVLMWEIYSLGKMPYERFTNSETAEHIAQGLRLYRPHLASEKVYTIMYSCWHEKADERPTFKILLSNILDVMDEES
As for `N#CN1CCCC(n2nc(-c3ccc(Oc4cccc(Cl)c4F)cc3)c(C(N)=O)c2N)C1` (stereo not drawn) [Example 57, 5-amino-3-[4-(3-chloro-2-fluoro-phenoxy)phenyl]-1-(1-cyanopiperidin-3-yl)-1H-pyrazole-4-carboxamide], the IC50 worked out at 3.1 nM.
Take `N#CN1CCCC(n2nc(-c3ccc(Oc4ccc(F)c(Cl)c4)cc3)c(C(N)=O)c2N)C1` (stereo not drawn) [Example 58, 5-amino-3-[4-(3-chloro-4-fluoro-phenoxy)phenyl]-1-(1-cyanopiperidin-3-yl)-1H-pyrazole-4-carboxamide]: the IC50 came to 1.8 nM.
The value for `N#CN1CCCC(n2nc(-c3ccc(Oc4cc(F)c(F)cc4F)cc3)c(C(N)=O)c2N)C1` (stereo not drawn) [Example 59, 5-amino-1-(1-cyanopiperidin-3-yl)-3-[4-(2,4,5-trifluorophenoxy)phenyl]-1H-pyrazole-4-carboxamide] was 8.5 nM; that for `N#CN1CCCC(n2nc(-c3ccc(Oc4cc(Cl)cc(Cl)c4)cc3)c(C(N)=O)c2N)C1` (stereo not drawn) [Example 60, 5-amino-1-(1-cyanopiperidin-3-yl)-3-[4-(3,5-dichlorophenoxy)phenyl]-1H-pyrazole-4-carboxamide] was 4.8 nM; that for `N#CN1CCCC(n2nc(-c3ccc(Oc4ccc(F)c(F)c4F)cc3)c(C(N)=O)c2N)C1` (stereo not drawn) [Example 61, 5-amino-1-(1-cyanopiperidin-3-yl)-3-[4-(2,3,4-trifluorophenoxy)phenyl]-1H-pyrazole-4-carboxamide] was 5.1 nM.
In the case of `N#CN1CCCC(n2nc(-c3ccc(Oc4ccccc4OC(F)(F)F)cc3)c(C(N)=O)c2N)C1` (stereo not drawn) [Example 62, 5-amino-1-(1-cyanopiperidin-3-yl)-3-{4-[2-(trifluoromethoxy)phenoxy]phenyl}-1H-pyrazole-4-carboxamide] it was 3.3 nM; in that of `N#CN1CCCC(n2nc(-c3ccc(Oc4c(F)cccc4Cl)cc3)c(C(N)=O)c2N)C1` (stereo not drawn) [Example 63, 5-amino-3-[4-(2-chloro-6-fluoro-phenoxy)phenyl]-1-(1-cyanopiperidin-3-yl)-1H-pyrazole-4-carboxamide], 4.9 nM; in that of `N#CN1CCCC(n2nc(-c3ccc(Oc4ccc(F)c(C(F)(F)F)c4)cc3)c(C(N)=O)c2N)C1` (stereo not drawn) [Example 64, 5-amino-1-(1-cyanopiperidin-3-yl)-3-{4-[4-fluoro-3-(trifluoromethyl)phenoxy]phenyl}-1H-pyrazole-4-carboxamide], 8.7 nM.
Regarding `COc1ccccc1Oc1ccc(-c2nn(C3CCCN(C#N)C3)c(N)c2C(N)=O)cc1` (stereo not drawn) [Example 65, 5-amino-1-(1-cyanopiperidin-3-yl)-3-[4-(2-methoxyphenoxy)phenyl]-1H-pyrazole-4-carboxamide], the IC50 amounted to 10.6 nM.
The value for `N#CN1CCCC(n2nc(-c3ccc(Oc4cc(F)cc(F)c4)cc3)c(C(N)=O)c2N)C1` (stereo not drawn) [Example 66, 5-amino-1-(1-cyanopiperidin-3-yl)-3-[4-(3,5-difluorophenoxy)phenyl]-1H-pyrazole-4-carboxamide] was 7.2 nM; that for `N#CN1CCCC(n2nc(-c3ccc(Cc4ccccc4)cc3)c(C(N)=O)c2N)C1` (stereo not drawn) [Example 67] was 2.4 nM.
Take `Cc1cccc(Cc2ccc(-c3nn(C4CCCN(C#N)C4)c(N)c3C(N)=O)cc2)c1` (stereo not drawn) [Example 68, 5-amino-1-(1-cyanopiperidin-3-yl)-3-[4-(3-methylbenzyl)phenyl]-1H-pyrazole-4-carboxamide]: the IC50 came to 1.9 nM.
In the case of `Cc1cccc(Cc2ccc(-c3nn([C@@H]4CCCN(C#N)C4)c(N)c3C(N)=O)cc2)c1` [Example 69, (R)-5-amino-1-(1-cyanopiperidin-3-yl)-3-(4-(3-methylbenzyl)phenyl)-1H-pyrazole-4-carboxamide] it was 0.6 nM; in that of `Cc1cccc(Cc2ccc(-c3nn([C@H]4CCCN(C#N)C4)c(N)c3C(N)=O)cc2)c1` [Example 70, (S)-5-amino-1-(1-cyanopiperidin-3-yl)-3-(4-(3-methylbenzyl)phenyl)-1H-pyrazole-4-carboxamide], 21.9 nM; in that of `N#CN1CCCC(n2nc(-c3ccc(Cc4ccccc4Cl)cc3)c(C(N)=O)c2N)C1` (stereo not drawn) [Example 71, 5-amino-3-(4-(2-chlorobenzyl)phenyl)-1-(1-cyanopiperidin-3-yl)-1H-pyrazole-4-carboxamide], 2.7 nM.
The value for `N#CN1CCC[C@@H](n2nc(-c3ccc(Cc4ccccc4Cl)cc3)c(C(N)=O)c2N)C1` [Example 72, (R)-5-amino-3-(4-(2-chlorobenzyl)phenyl)-1-(1-cyanopiperidin-3-yl)-1H-pyrazole-4-carboxamide] was 0.54 nM.
The value for `N#CN1CCC[C@H](n2nc(-c3ccc(Cc4ccccc4Cl)cc3)c(C(N)=O)c2N)C1` [Example 73, (S)-5-amino-3-(4-(2-chlorobenzyl)phenyl)-1-(1-cyanopiperidin-3-yl)-1H-pyrazole-4-carboxamide] was 6.1 nM; that for `N#CN1CCCC(n2nc(-c3ccc(Cc4ccccc4F)cc3)c(C(N)=O)c2N)C1` (stereo not drawn) [Example 74, 5-amino-1-(1-cyanopiperidn-3-yl)-3-[4-(2-fluorobenzyl)phenyl]-1H-pyrazole-4-carboxamide] was 1 nM.
With `N#CN1CCC[C@H](n2nc(-c3ccc(Cc4ccccc4F)cc3)c(C(N)=O)c2N)C1` [Example 76, (S)-5-amino-1-(1-cyanopiperidin-3-yl)-3-(4-(2-fluorobenzyl)phenyl)-1H-pyrazole-4-carboxamide], the IC50 stood at 12 nM.
In the case of `N#CN1CCCC(n2nc(-c3ccc(Cc4cccc(F)c4)cc3)c(C(N)=O)c2N)C1` (stereo not drawn) [Example 77, 5-amino-1-(1-cyanopiperidin-3-yl)-3-[4-(3-fluorobenzyl)phenyl]-1H-pyrazole-4-carboxamide] it was 2.3 nM.
In the case of `N#CN1CCCC(n2nc(-c3ccc(Cc4ccc(F)cc4F)cc3)c(C(N)=O)c2N)C1` (stereo not drawn) [Example 80, 5-amino-1-(1-cyanopiperidin-3-yl)-3-[4-(2,4-difluorobenzyl)phenyl]-1H-pyrazole-4-carboxamide] it was 15.6 nM.
With `N#CN1CCCC(n2nc(-c3ccc(Cc4ccc(F)c(F)c4)cc3)c(C(N)=O)c2N)C1` (stereo not drawn) [Example 83, 5-amino-1-(1-cyanopiperidin-3-yl)-3-[4-(3,4-difluorobenzyl)phenyl]-1H-pyrazole-4-carboxamide], the IC50 stood at 15.3 nM.
For `N#CN1CCCC(n2nc(-c3ccc(Cc4ccc(Cl)cc4)cc3)c(C(N)=O)c2N)C1` (stereo not drawn) [Example 86, 5-amino-3-[4-(4-chlorobenzyl)phenyl]-(1-cyanopiperidin-3-yl)-1H-pyrazole-4-carboxamide], the IC50 was found to be 26.8 nM.
The value for `N#CN1CCCC(n2nc(-c3ccc(C(=O)c4ccccc4)cc3)c(C(N)=O)c2N)C1` (stereo not drawn) [Example 87, 5-Amino-3-(4-benzoyl-phenyl)-1-(1-cyano)-piperidin-3-yl-1H-pyrazole-4-carboxylic acid amide] was 1.3 nM.
Regarding `N#CN1CCCC(n2nc(-c3ccc(C(O)c4ccccc4)cc3)c(C(N)=O)c2N)C1` (stereo not drawn) [Example 88, 5-amino-1-(1-cyanopiperidin-3-yl)-3-{4-[hydroxy(phenyl)methyl]phenyl}-1H-pyrazole-4-carboxamide], the IC50 was 5.7 nM.
On to `N#CN1CCCC(n2nc(-c3cccc(Oc4ccccc4)c3)c(C(N)=O)c2N)C1` (stereo not drawn) [Example 89, 5-amino-1-(1-cyanopiperidin-3-yl)-3-(3-phenoxyphenyl)-1H-pyrazole-4-carboxamide], for which the IC50 stood at 7.7 nM.
The value for `N#CN1CCCC(n2nc(-c3cccc(Cc4ccc(Cl)cc4)c3)c(C(N)=O)c2N)C1` (stereo not drawn) [Example 92, 5-amino-3-[3-(4-chlorobenzyl)phenyl]-1-(1-cyanopiperidin-3-yl)-1H-pyrazole-4-carboxamide] was 73.4 nM; that for `N#CN1CCCC(n2nc(-c3cccc(Cc4ccc(F)cc4)c3)c(C(N)=O)c2N)C1` (stereo not drawn) [Example 93, 5-amino-1-(1-cyanopiperidin-3-yl)-3-[3-(4-fluorobenzyl)phenyl]-1H-pyrazole-4-carboxamide] was 35 nM.
For the compound `N#CN1CCCC(n2nc(-c3cccc(Oc4ccc(F)cc4)c3)c(C(N)=O)c2N)C1` (stereo not drawn) [Example 94, 5-Amino-1-(1-cyanopiperidin-3-yl)-3-(3-(4-fluorophenoxy)phenyl)-1H-pyrazole-4-carboxamide], the IC50 is 50.2 nM.
In the case of `N#CN1CCCC(n2nc(-c3cccc(Oc4ccc(OC(F)(F)F)cc4)c3)c(C(N)=O)c2N)C1` (stereo not drawn) [Example 95, 5-Amino-1-(1-cyanopiperidin-3-yl)-3-{3-[4-(trifluoromethoxy)phenoxy]phenyl}-1H-pyrazole-4-carboxamide], the concentration for half-maximal inhibition (IC50) was 79.2 nM.
The value for `Cc1ccc(Oc2cccc(-c3nn(C4CCCN(C#N)C4)c(N)c3C(N)=O)c2)cc1F` (stereo not drawn) [Example 96, 5-amino-1-(1-cyanopiperidin-3-yl)-3-[3-(3-fluoro-4-methylphenoxy)phenyl]-1H-pyrazole-4-carboxamide] was 21.9 nM; that for `CC(C)c1ccccc1Oc1cccc(-c2nn(C3CCCN(C#N)C3)c(N)c2C(N)=O)c1` (stereo not drawn) [Example 97, 5-amino-1-(1-cyanopiperidin-3-yl)-3-[3-(2-isopropylphenoxy)phenyl]-1H-pyrazole-4-carboxamide] was 52.8 nM.
In the case of `Cc1ccc(Oc2cccc(-c3nn(C4CCCN(C#N)C4)c(N)c3C(N)=O)c2)cc1` (stereo not drawn) [Example 98, 5-amino-1-(1-cyanopiperidin-3-yl)-3-[3-(4-methylphenoxy)phenyl]-1H-pyrazole-4-carboxamide] it was 27.3 nM; in that of `Cc1cc(Oc2cccc(-c3nn(C4CCCN(C#N)C4)c(N)c3C(N)=O)c2)ccc1Cl` (stereo not drawn) [Example 99, 5-amino-3-[3-(4-chloro-3-methylphenoxy)-phenyl]-1-(1-cyanopiperidin-3-yl)-1H-pyrazole-4-carboxamide], 15.6 nM.
The value for `CC(C)c1ccc(Oc2cccc(-c3nn(C4CCCN(C#N)C4)c(N)c3C(N)=O)c2)cc1` (stereo not drawn) [Example 100, 5-amino-1-(1-cyanopiperidin-3-yl)-3-[3-(4-isopropylphenoxy)phenyl]-1H-pyrazole-4-carboxamide] was 16.3 nM.
Regarding `Cc1cc(Oc2cccc(-c3nn(C4CCCN(C#N)C4)c(N)c3C(N)=O)c2)ccc1C(C)C` (stereo not drawn) [Example 101, 5-amino-1-(1-cyanopiperidin-3-yl)-3-[3-(4-isopropyl-3-methylphenoxy)phenyl]-1H-pyrazole-4-carboxamide], the IC50 stood at 5.3 nM.
